2 compounds from article PMC6892255, “Identification of a potent small-molecule inhibitor of bacterial DNA repair that potentiates quinolone antibiotic activity in methicillin-resistant Staphylococcus aureus^” (Bioorganic & Medicinal Chemistry, 2019) can be followed below.

Each structure is given as a SMILES string. “Also recorded” adds a separate entry of the source.

The target in one assay is T1, E. coli DNA gyrase (Escherichia coli, UniProt P0AES4+P0AES6).
T1 construct: purchased Inspiralis
T1 sequence (P0AES4 whole entry, one chain of several): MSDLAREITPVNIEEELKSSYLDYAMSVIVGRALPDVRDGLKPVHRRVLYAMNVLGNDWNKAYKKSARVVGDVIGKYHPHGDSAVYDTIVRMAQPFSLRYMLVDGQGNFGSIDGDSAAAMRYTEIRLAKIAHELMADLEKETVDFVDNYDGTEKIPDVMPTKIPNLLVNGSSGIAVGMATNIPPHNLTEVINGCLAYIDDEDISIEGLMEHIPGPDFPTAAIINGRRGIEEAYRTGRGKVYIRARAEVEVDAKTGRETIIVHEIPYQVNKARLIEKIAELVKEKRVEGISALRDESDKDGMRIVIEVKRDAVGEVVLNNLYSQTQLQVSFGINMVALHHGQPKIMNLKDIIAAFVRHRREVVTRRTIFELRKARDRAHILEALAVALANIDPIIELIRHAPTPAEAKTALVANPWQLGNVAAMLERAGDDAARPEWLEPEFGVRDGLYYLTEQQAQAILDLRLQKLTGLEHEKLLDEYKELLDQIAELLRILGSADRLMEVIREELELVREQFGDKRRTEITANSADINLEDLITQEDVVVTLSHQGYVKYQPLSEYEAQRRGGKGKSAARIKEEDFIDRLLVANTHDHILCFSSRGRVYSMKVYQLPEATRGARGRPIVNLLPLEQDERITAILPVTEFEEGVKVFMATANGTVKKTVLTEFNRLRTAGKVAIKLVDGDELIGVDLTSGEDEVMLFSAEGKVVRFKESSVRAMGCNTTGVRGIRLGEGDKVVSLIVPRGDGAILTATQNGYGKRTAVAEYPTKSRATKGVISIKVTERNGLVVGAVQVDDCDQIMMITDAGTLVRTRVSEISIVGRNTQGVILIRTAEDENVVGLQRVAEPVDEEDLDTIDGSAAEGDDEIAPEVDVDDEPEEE
Description: DNA gyrase supercoiling assay (pBR322). Conditions: at 12.5 μM (compounds); gel and densitometry. Format: biochemical. On the procedure:
DNA gyrase produces supercoiled DNA from relaxed and open-coiled DNA, which can be separated via agarose gel electrophoresis. […]
(§1) E. coli DNA gyrase supercoiling assay (Inspiralis) was performed according to the manufacturer’s instructions, ensuring a constant concentration of 1% (v/v) DMSO. Samples were separated on a 1% (w/v) agarose gel prepared with Tris/Borate/EDTA (TBE) buffer (1 M Tris-borate, 20 mM EDTA, pH 8.0). Electrophoresis was performed at 100 V until the bromophenol blue dye had run >6 cm to ensure resolution of relaxed and supercoiled DNA.
(§2) The gel was stained with SYBR Safe DNA gel stain (Invitrogen, 1:10,000 dilution in TBE) for 30 min, and visualized on a Syngene Gel Doc system. Band intensity was quantified using ImageJ software and the fraction of supercoiled plasmid was determined as the ratio of the density of the supercoiled band to the total density. Values were background corrected against the no-gyrase control and normalized to DMSO control for dose-response analysis.

In the next assay the target is T2, E. coli topoisomerase IV (Escherichia coli, UniProt P0AFI2+P20083).
T2 construct: purchased Inspiralis
T2 sequence (P0AFI2 whole entry): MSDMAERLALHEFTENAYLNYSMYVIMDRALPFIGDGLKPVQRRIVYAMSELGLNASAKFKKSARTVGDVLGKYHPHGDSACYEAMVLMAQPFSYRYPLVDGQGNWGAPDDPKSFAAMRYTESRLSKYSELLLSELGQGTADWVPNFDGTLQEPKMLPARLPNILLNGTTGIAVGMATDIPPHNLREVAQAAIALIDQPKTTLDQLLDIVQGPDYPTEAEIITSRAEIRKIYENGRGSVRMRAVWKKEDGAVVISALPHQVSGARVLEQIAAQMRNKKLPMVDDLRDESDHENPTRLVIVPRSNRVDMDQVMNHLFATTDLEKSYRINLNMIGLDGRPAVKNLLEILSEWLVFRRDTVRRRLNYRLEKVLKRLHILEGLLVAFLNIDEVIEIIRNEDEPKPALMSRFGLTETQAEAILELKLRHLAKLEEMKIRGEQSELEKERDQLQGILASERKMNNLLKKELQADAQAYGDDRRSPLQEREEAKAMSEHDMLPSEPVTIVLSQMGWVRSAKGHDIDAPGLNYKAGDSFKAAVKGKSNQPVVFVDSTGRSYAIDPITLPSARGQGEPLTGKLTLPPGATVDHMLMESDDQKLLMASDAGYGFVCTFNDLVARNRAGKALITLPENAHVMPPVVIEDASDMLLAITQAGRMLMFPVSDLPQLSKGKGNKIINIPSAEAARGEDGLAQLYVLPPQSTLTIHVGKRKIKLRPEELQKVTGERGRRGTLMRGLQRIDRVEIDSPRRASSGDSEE
T2 sequence (P20083 whole entry): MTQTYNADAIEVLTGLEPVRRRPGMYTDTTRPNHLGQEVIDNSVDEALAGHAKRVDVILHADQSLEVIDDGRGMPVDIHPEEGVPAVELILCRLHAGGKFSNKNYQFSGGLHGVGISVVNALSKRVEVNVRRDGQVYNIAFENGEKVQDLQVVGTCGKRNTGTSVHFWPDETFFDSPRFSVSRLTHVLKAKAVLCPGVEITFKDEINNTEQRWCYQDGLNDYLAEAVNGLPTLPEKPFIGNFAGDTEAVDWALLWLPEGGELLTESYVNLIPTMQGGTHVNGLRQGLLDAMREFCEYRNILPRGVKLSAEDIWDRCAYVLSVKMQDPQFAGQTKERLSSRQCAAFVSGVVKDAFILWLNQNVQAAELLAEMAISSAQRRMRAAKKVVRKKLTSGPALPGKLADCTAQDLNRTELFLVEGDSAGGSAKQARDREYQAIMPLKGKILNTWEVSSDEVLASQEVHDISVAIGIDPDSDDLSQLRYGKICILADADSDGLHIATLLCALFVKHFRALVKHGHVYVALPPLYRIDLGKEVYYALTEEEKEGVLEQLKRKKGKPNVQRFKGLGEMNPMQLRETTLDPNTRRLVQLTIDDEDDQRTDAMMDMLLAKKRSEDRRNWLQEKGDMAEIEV
In words: Topoisomerase IV supercoiling relaxation assay (pQE80L). The assay is classed as biochemical. Conditions: at 12.5 µM (compounds). On the procedure:
2.1. Biological and biochemical methods […]
as §1, §2
E. coli topoisomerase IV supercoiling relaxation assay (Inspiralis) was performed according to the manufacturer’s instructions, ensuring a constant concentration of 1% (v/v) DMSO.
Supercoiled pQE80L was prepared via plasmid purification and used as the substrate for the reaction. Reactions were analyzed as described for DNA gyrase assays. […]

For assay [1], the system named is SOS response in JE2 cells. Description: SOS reporter assay (GFP under control of the recA promoter). Format: cell-based, Staphylococcus aureus. Conditions: for SOS response (normalized GFP fluorescence/cell): JE2 recA-GFP reporter, SOS activated with CFX (10 µM), titration of compound. From the text:
A SOS reporter system was generated by transformation of JE2 cells with a plasmid containing GFP under control of the recA promoter. Activation of the SOS response in these cells results in expression of GFP which can be monitored by fluorescence intensity. […] IMP-1700 (10) was coupled with N-Boc-ethylenediamine to afford amide 19, followed by removal of the Boc group in 4 M HCl/dioxane and purification using strong cation exchange resin. The resulting free amine 20 was coupled to N-hydroxysuccinimide (NHS)-activated Sepharose resin at 4 °C overnight (Figure 2C), and the remaining NHS sites quenched in Tris buffer. SoluBL21 competent E. coli were transformed with pET28b^+ containing StrepII-tagged AddA and hexahistidine-tagged AddB, and expression induced overnight at 16 °C. […] Beads were washed three times with lysis buffer and bound protein eluted with SDS-PAGE sample buffer, followed by PAGE separation. […]
JE2 transformed with SOS-inducible pCN34 PrecA-gfp reporter plasmid expressing GFP under the control of the recA promoter were grown to late stationary phase at 37 °C in MHB containing kanamycin (90 μg/mL). Stationary phase JE2 culture (1 mL) was centrifuged (17,000 × g, 2 min), the supernatant removed and cells resuspended in assay media (12.5 µM […]
concentration was maintained >12.5 µM and DMSO concentration maintained at 1.5% (v/v).
JE2 culture (20 uL) was added to inhibitor solutions (180 µL) to a final cell density of 4 x 10^7 CFU/mL and samples incubated in a M200-PRO microplate reader (Tecan) at 37 °C with 700 rpm agitation for 17 h. GFP fluorescence intensity and OD600 were measured at 15 min intervals. Measurements were background corrected against no-inocula control and normalized to no-test inhibitor control at mid-exponential growth phase (4.5 h) for dose-response analysis. […]
A general note: A reporter such as luciferase makes a cellular process visible.

For assay [2], the system named is methicillin-resistant S. aureus (MRSA, USA300 JE2). Description: Ciprofloxacin (CFX) potentiation in MRSA growth inhibition assay. The assay is classed as cell-based, Staphylococcus aureus. The following applies: compared to IMP-1700 (10). On the procedure:
2.1. Biological and biochemical methods
Bacterial strains and culture conditions
Strains utilized in the present study are detailed in Table S1. All strains used were cultivated on Mueller Hinton Agar (MHA) and grown to stationary-phase in Mueller Hinton Broth (MHB) at 37 °C for 16 h, with shaking at 180 r.p.m.
Minimum inhibitory concentration (MIC) assays
MIC assays were performed in 96 well plates and MICs were determined in accordance with the broth microdilution protocol.4 Strains grown to stationary-phase in MHB were adjusted to 5 x 10^5 colony-forming units (CFU)/mL in fresh MHB (100 µL/well) supplemented with DMSO to ensure a constant concentration of 0.5% (v/v) DMSO across all experiments. Where […]
or H2O2 (200 μM). Test compounds were prepared as two-fold serial dilutions. Cells were […]
as the lowest concentration with no visible bacterial growth, and the optical density at 600 nm (OD600) was recorded. OD600 measurements were background corrected against no-inocula control and normalized to DMSO control for dose-response analysis. The EC50 value mean and SEM were calculated from individual EC50 values from three biological replicates. […]

In assay [3] the test system is AddAB (StrepII-AddA and His6-AddB). In words: Recombinant AddAB pulldown with compound-functionalized Sepharose. The assay is classed as binding. Conditions: E. coli lysate co-expressing StrepII-AddA and His6-AddB, Western blot. From the text:
A SOS reporter system was generated by transformation of JE2 cells with a plasmid containing GFP under control of the recA promoter. Activation of the SOS response in these cells results in expression of GFP which can be monitored by fluorescence intensity. […] This decrease is indicative of inhibition of the SOS response during cell death, and consistent with the proposed inhibition of AddAB-mediated DNA repair pathways. Finally, to provide additional evidence that inhibition of the bacterial DNA repair pathway by IMP-1700 (10) occurred through inhibition of AddAB, a target pulldown was conducted. IMP-1700 (10) was coupled with N-Boc-ethylenediamine to afford amide 19, followed by removal of the Boc group in 4 M HCl/dioxane and purification using strong cation exchange resin. The resulting free amine 20 was coupled to N-hydroxysuccinimide (NHS)-activated Sepharose resin at 4 °C overnight (Figure 2C), and the remaining NHS sites quenched in Tris buffer. SoluBL21 competent E. coli were transformed with pET28b^+ containing StrepII-tagged AddA and hexahistidine-tagged AddB, and expression induced overnight at 16 °C. Cells were lysed via sonication and the total lysate incubated with IMP-1700 (10)-functionalized or control Sepharose beads which had been treated with DMSO then Tris-quenched. Beads were washed three times with lysis buffer and bound protein eluted with SDS-PAGE sample buffer, followed by PAGE separation. […]
agar (LA) supplemented with kanamycin (50 μg/mL). Liquid cultures were grown at 37 °C with shaking at 180 r.p.m until an OD600 of 0.5 was reached, at which point cultures were cooled to 16 °C. Protein expression was induced by addition of isopropyl β-D-thiogalactoside (1 mM), followed by incubation for 20 h at 16 °C with shaking. Cells were collected by centrifugation (4,000 × g, 5 min) and stored at -20 °C.
Cells were re-suspended in lysis buffer (50 mM Tris-HCl, 150 mM NaCl, pH 7.5) and lysed on ice by sonication (2 min, 5 s on-off cycle, 40% amplitude) using a Vibra-cell sonicator (Sonics). […]
Background: A western blot detects proteins with antibodies after separation by electrophoresis.

For the compound `O=C(O)c1cn(C2CC2)c2cc(N3CCNCC3)c(F)cc2c1=O` [CFX, ciprofloxacin, reference compound], the “Activity against DNA gyrase” value on E. coli DNA gyrase is “inhibited”. Further, the “Inhibition of topoisomerase IV” value on E. coli topoisomerase IV is given as “inhibited”. Besides, the “Effect on cell number (OD600) in SOS reporter assay” value in assay [1] (JE2 recA-GFP reporter with CFX (10 µM)) is recorded as “decrease in cell number at low micromolar concentrations”. Also, the “SOS response (normalized GFP fluorescence/cell)” value in assay [1] is “increase in normalized GFP fluorescence/cell; also recorded: SOS activation increased”.
For `O=C(O)c1cn(C2CC2)c2cc(N3CCN(C(=O)Nc4ccccc4)CC3)c(F)cc2c1=O` [Compound 21], the “fold weaker potentiation of CFX in MRSA growth assays” value in assay [2] was ~100 fold. Moreover, the “SOS response (normalized GFP fluorescence/cell)” value in assay [1] was “did not inhibit the SOS response; also recorded: SOS activation increased”. Moreover, the “Pulldown of AddA and AddB by compound-functionalized Sepharose” value in assay [3] was “no interaction; also recorded: did not; also recorded: does not pulldown”.
